MIC, inhibition of growth and growth inhibition (GI) data for eight compounds are collected here from ChEMBL document CHEMBL3792317, “Novel tetrazoloquinoline-rhodanine conjugates: Highly efficient synthesis and biological evaluation” (Bioorg Med Chem Lett, 2016).

The MIC is the least concentration at which growth counts as inhibited. Lower therefore signals inhibition by little substance.

Assay [1] has as its system Mycobacterium tuberculosis. The assay can be described thus: Antitubercular activity against Mycobacterium tuberculosis H37Ra ATCC 25177 incubated for 40 mins by XTT Reduction Menadione Assay. It is filed as functional. The following applies: H37Ra ATCC 25177, 40 min. Background: Tetrazolium assays rely on reduction of a dye to a coloured formazan, in cell work by metabolically active cells.

Assay [2] can be described thus: Antitubercular activity against Mycobacterium bovis BCG ATCC 35743 incubated for 40 mins by XTT Reduction Menadione Assay. It is filed as functional, Mycobacterium bovis BCG str. ATCC 35743. To be noted: Mycobacterium tuberculosis variant bovis BCG, ATCC 35743, 40 min.
The subject of a further assay is Candida albicans. The assay can be described thus: Antifungal activity against Candida albicans NCIM 3471 after 48 hrs by agar cup plate method. The assay is classed as functional. The following applies: NCIM 3471, 48 h.
The next assay deals with Fusarium oxysporum. The assay can be described thus: Antifungal activity against Fusarium oxysporum NCIM 1332 after 48 hrs by agar cup plate method. To be noted: NCIM 1332, 48 h. It is filed as functional.
For a further assay, the system named is Aspergillus flavus. The assay can be described thus: Antifungal activity against Aspergillus flavus NCIM 539 after 48 hrs by agar cup plate method. The assay is classed as functional. The following applies: NCIM 539, 48 h.
The next assay relates to Aspergillus niger. The assay can be described thus: Antifungal activity against Aspergillus niger NCIM 1196 after 48 hrs by agar cup plate method. It is filed as functional. To be noted: NCIM 1196, 48 h.
Another assay has as its system Cryptococcus neoformans. The assay can be described thus: Antifungal activity against Cryptococcus neoformans NCIM 576 after 48 hrs by agar cup plate method. It is filed as functional. To be noted: NCIM 576, 48 h.
Assay [3] relates to Mycobacterium tuberculosis. The assay can be described thus: Antitubercular activity against Mycobacterium tuberculosis H37Ra ATCC 25177 at 30 ug/ml incubated for 40 mins by XTT Reduction Menadione Assay. The following applies: H37Ra ATCC 25177, 40 min, read-out: GI. The assay is classed as functional.
Assay [4] concerns Mycobacterium tuberculosis. The assay can be described thus: Antitubercular activity against Mycobacterium tuberculosis H37Ra ATCC 25177 at 10 ug/ml incubated for 40 mins by XTT Reduction Menadione Assay. The assay is classed as functional. To be noted: H37Ra ATCC 25177, 40 min, read-out: GI.
Assay [5] has as its system Mycobacterium tuberculosis. The assay can be described thus: Antitubercular activity against Mycobacterium tuberculosis H37Ra ATCC 25177 at 3 ug/ml incubated for 40 mins by XTT Reduction Menadione Assay. The assay is classed as functional. The following applies: H37Ra ATCC 25177, 40 min, read-out: GI.
Assay [6] has as its system Mycobacterium bovis BCG str. ATCC 35743. The assay can be described thus: Antitubercular activity against dormant Mycobacterium bovis BCG ATCC 35743 at 30 ug/ml incubated for 40 mins by XTT Reduction Menadione Assay. The assay is classed as functional.
For assay [7] the test system is unchanged. The assay can be described thus: Antitubercular activity against dormant Mycobacterium bovis BCG ATCC 35743 at 10 ug/ml incubated for 40 mins by XTT Reduction Menadione Assay. The assay is classed as functional.
Assay [8] has the same test system. The assay can be described thus: Antitubercular activity against dormant Mycobacterium bovis BCG ATCC 35743 at 3 ug/ml incubated for 40 mins by XTT Reduction Menadione Assay. The assay is classed as functional.
The next assay deals with Escherichia coli. The assay can be described thus: Antibacterial activity against Escherichia coli after 18 hrs by broth dilution method. It is filed as functional. A general note: Dilution methods test growth across graded concentrations, often in twofold steps.
The subject of a further assay is Pseudomonas fluorescens. The assay can be described thus: Antibacterial activity against Pseudomonas fluorescens after 18 hrs by broth dilution method. It is filed as functional.
Another assay deals with Staphylococcus aureus. The assay can be described thus: Antibacterial activity against Staphylococcus aureus after 18 hrs by broth dilution method. The assay is classed as functional.
Another assay concerns Bacillus subtilis. The assay can be described thus: Antibacterial activity against Bacillus subtilis after 18 hrs by broth dilution method. The assay is classed as functional.

In brackets after ≈: the same amount, converted by molar mass.

Take `O=C(O)CCN1C(=O)/C(=C/c2cc3ccccc3n3nnnc23)SC1=S`: the MIC came to 174 µg/mL (≈ 451 µM) in [1]; 182 µg/mL (≈ 473 µM) in assay [2]; 100 µg/mL (≈ 259 µM) with Candida albicans; 125 µg/mL (≈ 324 µM) against Fusarium oxysporum; 150 µg/mL (≈ 389 µM) in the assay on Aspergillus flavus; 150 µg/mL (≈ 389 µM) in the assay on Aspergillus niger. This compound had an MIC against Cryptococcus neoformans of 175 µg/mL (≈ 454 µM). Besides, the inhibition of growth at 30 µg/mL in assay [3] came out at 48.9%. Besides, the inhibition of growth at 10 µg/mL in assay [4] amounted to 17.7%. The inhibition of growth at 3 µg/mL in assay [5] is -1.77%. Also, the growth inhibition (GI) in assay [6] was 47.9%; in assay [7] it was 21.6%; in [8], 18.8%.
Consider `CC1(C)S[C@@H]2[C@H](NC(=O)[C@H](N)c3ccccc3)C(=O)N2[C@H]1C(=O)O` [AMPICILLIN], for which the MIC against Escherichia coli worked out at 1.46 µg/mL (≈ 4.18 µM); in the assay with Pseudomonas fluorescens, 4.36 µg/mL (≈ 12.5 µM); against Staphylococcus aureus it was 1 µg/mL (≈ 2.86 µM); in the assay on Bacillus subtilis, 10.3 µg/mL (≈ 29.5 µM).
For `COc1ccc2c(c1)cc(/C=C1\SC(=S)N(CC(=O)O)C1=O)c1nnnn12`, the MIC in assay [1] was above 250 µg/mL; in assay [2], above 250 µg/mL; against Candida albicans it was 50 µg/mL (≈ 125 µM); against Fusarium oxysporum it was 100 µg/mL (≈ 249 µM); against Aspergillus flavus, 150 µg/mL (≈ 374 µM); against Aspergillus niger, 50 µg/mL (≈ 125 µM). The MIC with Cryptococcus neoformans was 150 µg/mL (≈ 374 µM). Besides, the inhibition of growth at 30 µg/mL in [3] worked out at 38%. Also, the inhibition of growth at 10 µg/mL in assay [4] came to 0.62%. Besides, the inhibition of growth at 3 µg/mL in assay [5] is 7.3%. The growth inhibition (GI) is 49.8% in assay [6], 32.1% in assay [7] and -9.36% in [8].
On to `Cc1ccc2c(c1)cc(/C=C1\SC(=S)N(CCC(=O)O)C1=O)c1nnnn12`, for which the MIC in [1] is 50.5 µg/mL (≈ 126 µM); in assay [2], 51.3 µg/mL (≈ 128 µM); in the assay on Candida albicans, 100 µg/mL (≈ 250 µM); with Fusarium oxysporum, 75 µg/mL (≈ 188 µM); against Aspergillus flavus, 75 µg/mL (≈ 188 µM); with Aspergillus niger, 25 µg/mL (≈ 62.6 µM). In the assay on Cryptococcus neoformans, the MIC came to 50 µg/mL (≈ 125 µM). Further, in [3], the inhibition of growth at 30 µg/mL turned out to be 44.7%. In [4], the inhibition of growth at 10 µg/mL came to 31.6%. For the same compound, in assay [5], the inhibition of growth at 3 µg/mL was 1.75%. The growth inhibition (GI) in [6] was 46.4%; in assay [7], 13.7%; in assay [8], 16.2%.
For the compound `NC[C@H]1O[C@H](O[C@H]2[C@H](O)[C@@H](O[C@H]3O[C@H](CO)[C@@H](O)[C@H](N)[C@H]3O)[C@H](N)C[C@@H]2N)[C@H](O)[C@@H](O)[C@@H]1O` [KANAMYCIN], the MIC in the assay on Escherichia coli is 1.62 µg/mL (≈ 3.34 µM); in the assay with Pseudomonas fluorescens it was 0.49 µg/mL (≈ 1.01 µM); in the assay with Staphylococcus aureus, above 30 µg/mL; in the assay on Bacillus subtilis, 1.35 µg/mL (≈ 2.79 µM).
`Clc1ccc(COC(Cn2ccnc2)c2ccc(Cl)cc2Cl)c(Cl)c1` (stereo not drawn) [MICONAZOLE]: the MIC against Candida albicans was determined as 25 µg/mL (≈ 60.1 µM); against Fusarium oxysporum, 25 µg/mL (≈ 60.1 µM); in the assay with Aspergillus flavus it was 12.5 µg/mL (≈ 30 µM); against Aspergillus niger it was 25 µg/mL (≈ 60.1 µM); against Cryptococcus neoformans, 25 µg/mL (≈ 60.1 µM).
Take `COc1ccc2cc(/C=C3\SC(=S)N(CCC(=O)O)C3=O)c3nnnn3c2c1`: the MIC in assay [1] is above 250 µg/mL; in [2] it was above 250 µg/mL; with Candida albicans it was 100 µg/mL (≈ 241 µM); against Fusarium oxysporum it was 150 µg/mL (≈ 361 µM); against Aspergillus flavus, 125 µg/mL (≈ 301 µM); against Aspergillus niger, 50 µg/mL (≈ 120 µM). Besides, 150 µg/mL (≈ 361 µM) was the least that counted as inhibitory in the assay on Cryptococcus neoformans (MIC). In addition, the inhibition of growth at 30 µg/mL in [3] was found to be 12.5%. Moreover, the inhibition of growth at 10 µg/mL in assay [4] worked out at 21.7%. Moreover, the inhibition of growth at 3 µg/mL in assay [5] was 0.02%. The growth inhibition (GI) was 19% in assay [6], 20.5% in assay [7] and 18.8% in [8].
Turning to `Cc1cccc2cc(/C=C3\SC(=S)N(CCC(=O)O)C3=O)c3nnnn3c12`, the MIC in [1] stood at 192 µg/mL (≈ 481 µM); in assay [2], 198 µg/mL (≈ 495 µM); with Candida albicans, 100 µg/mL (≈ 250 µM); in the assay on Fusarium oxysporum, 100 µg/mL (≈ 250 µM); in the assay on Aspergillus flavus, 50 µg/mL (≈ 125 µM); with Aspergillus niger, 75 µg/mL (≈ 188 µM). In addition, the lowest concentration to inhibit growth against Cryptococcus neoformans (MIC) was 50 µg/mL (≈ 125 µM). Moreover, the inhibition of growth at 30 µg/mL in assay [3] was determined as 36.9%. The inhibition of growth at 10 µg/mL in assay [4] was 15.5%. In assay [5], the inhibition of growth at 3 µg/mL is -0.39%. Also, the growth inhibition (GI) is -8.69% in assay [6], -11.4% in assay [7] and -8.42% in assay [8].
